Patent US9023857B2, “Substituted 6-(2-aminobenzylamino)purine derivatives, their use as medicaments and preparations containing these compounds” (Univerzita Palackeho V Olomouci, priority 2009, dated 2015)

Tests used:
IV = format: cell-based, Influenza Virus H1N1 strain A/PR/8/34; settings: MDCK cells
[1] = system: pRb (Ser780, Ser807, Thr821) in MCF7 cells; experiment: Immunoblot analysis of pRb phosphorylation in MCF7 cells; format: cell-based, human; settings: MCF7 cells treated for 24 h, immunoblot (FIG. 2)
Experimental: Cell were detached with rubber policeman and washed three times with ice-cold PBS and lysed in buffer (50 mM Tris, pH 7.4, 250 mM NaCl, 5 mM EDTA, 50 mM NaF, 1 mM Na3VO4, 1% Nonidet P40) containing mixture of protease and phosphatase inhibitors (Sigma-Aldrich St Louis, Mo., USA). 20 μg of total proteins were separated by SDS-polyacrylamide gel electrophoresis (SDS-PAGE) on 8% or 10% gels and transferred onto nitrocellulose membranes. Membranes were blocked in 5% milk and 0.1% Tween 20 in PBS and probed overnight with specific monoclonal antibodies or rabbit polyclonal sera. Primary antibodies specific for RNA polymerase II (all from Santa Cruz Biotechnology, California, USA) included: (i) N-20 used at 1 μg/ml, (ii) H14, specific for form phosphorylated at phosphoserine 5, used at 6 μg/ml and (iii) H5, specific for form phosphorylated at phosphoserine 2 used at 4 μg/ml. Additional primary mAb used in immunblots included (iv) anti-p53 (DO-1, in house) used at 1 μg/ml, (v) anti-p21^WAF1 (118, in house), used at 1 μg/ml), (vi) anti-actin (A-2066, Sigma-Aldrich St Louis, Mo., USA) used at 1 μg/ml, (vii) anti-T-antigen (419, in house), used at 1 μg/ml. All primary antibodies were diluted in PBS containing 5% powdered milk; 0.1% Tween 20. […]

[2] = system: HIV promoter (pHIV-lacZ, extrachromosomal) in H1299-TAT cells; experiment: β-galactosidase expression from pHIV-lacZ transiently transfected to H1299-TAT; settings: H1299-TAT cells (FIG. 11)
[3] = system: p53 protein in MCF-7 cells expressing wild-type p53; experiment: Induction of p53 protein in MCF-7 cells (immunoblotting); format: cell-based, human
Experimental: (§1) (a) DO-1, DO-2 and 1801 monoclonal antibodies recognise the N-terminal region of p53 protein, monoclonal antibodies DO-11 and DO-12 recognise different epitopes in the core domain of p53 protein, monoclonal antibodies Bp53-10 and Pab421 recognise the C-terminal region of p53 protein. (b) Monoclonal antibody 118 recognises p21^WAF1.
For direct immunoblotting, total cellular protein lysates were prepared by harvesting cells in hot Laemmli electrophoresis sample buffer. Proteins were then separated by SDS-polyacrylamide gel electrophoresis (SDS-PAGE) on 10% gel and transferred onto a nitrocellulose membrane in Bio.Rad Mini Trans-Blott Electrophoretic Transfer Cell for 2 hrs at 4° C. applying 150 mA in transfer buffer ([…], 190 mM glycine and 20% methanol). Prestained molecular weight markers (Bio-Rad) were run in parallel. The blotted membranes were blocked in 5% milk and 0.1% Tween 20 in PBS for 2 hrs and probed overnight with monoclonal antibodies. After washing 3 times in PBS plus 0.1% Tween 20, peroxidase conjugated rabbit anti-mouse immunoglobulin antiserum (Dako, Denmark) diluted 1:1000 was used as the secondary antibody. To visualise peroxidase activity, ECL reagents from […] were used according to the manufacturer instructions.
First, we determined appropriate concentration of 103 and 105 for our experiments. The MCF-7 (wt p53) cells were treated for 12 hrs with increasing concentrations of 105 ranging from 1 to 100 μM and analysed for p53 protein expression using monoclonal antibody DO-1 (FIG. 3A). […] As shown at FIG. 3C the level of protein expression induced by 5 μM 105 was not substantially different from expression induced by 50 μM concentration was selected for further experiments. Second, the periods of time 6, 12 and 24 hrs were chosen, since the level of protein expression reached a steady state. We analysed the expression of p53 protein in MCF-7 (wt p53), BT549 (mut p53) and BT474 (mut p53) breast cancer cell lines, in HT29 (mut p53) colorectal cancer cell line and in ostaosarcoma cell line HOS (mut p53). […] No induction of p53 was observed following exposure of BT549 and HOS cell lines, expressing mutant p53, to 5 μM 105 for 6, 12 and 24 hrs. No correlation was observed between the sensitivity of cell lines to 105 and the presence of wild-type or mutant p53.

SV40 large T-antigen = format: cell-based
[4] = system: SV40 large T-antigen in COS-1 cells; experiment: Expression from SV40 promoter incorporated in the cellular genome (COS-1 cells); format: cell-based; settings: COS-1 cells (FIG. 10)
Experimental: Cell were detached with rubber policeman and washed three times with ice-cold PBS and lysed in buffer (50 mM Tris, pH 7.4, 250 mM NaCl, 5 mM EDTA, 50 mM NaF, 1 mM Na3VO4, 1% Nonidet P40) containing mixture of protease and phosphatase inhibitors (Sigma-Aldrich St Louis, Mo., USA). 20 μg of total proteins were separated by SDS-polyacrylamide gel electrophoresis (SDS-PAGE) on 8% or 10% gels and transferred onto nitrocellulose membranes. Membranes were blocked in 5% milk and 0.1% Tween 20 in PBS and probed overnight with specific monoclonal antibodies or rabbit polyclonal sera. Primary antibodies specific for RNA polymerase II (all from Santa Cruz Biotechnology, California, USA) included: (i) N-20 used at […] (ii) H14, specific for form phosphorylated at phosphoserine 5, used at 6 μg/ml and (iii) H5, specific for form phosphorylated at phosphoserine 2 used at 4 μg/ml. Additional primary mAb used in immunblots included (iv) anti-p53 (D0-1, in house, […]) used at 1 μg/ml, (v) anti-p21^WAF1 (118, in house), used at 1 μg/ml), (vi) anti-actin (A-2066, Sigma-Aldrich St Louis, Mo., USA) used at 1 μg/ml, (vii) anti-T-antigen (419, in house, Lane), used at 1 μg/ml. All primary antibodies were diluted in PBS containing 5% powdered milk; 0.1% Tween 20. […]

[5] = system: p53 protein in osteosarcoma cell line HOS (mut p53); experiment: p53 protein expression in HOS cells (immunoblotting); format: cell-based, human; settings: HOS (mutant p53), 5 μM, 6, 12 and 24 hrs
Experimental: as §1
For direct immunoblotting, total cellular protein lysates were prepared by harvesting cells in hot Laemmli electrophoresis sample buffer. Proteins were then separated by SDS-polyacrylamide gel electrophoresis (SDS-PAGE) on 10% gel and transferred onto a nitrocellulose membrane in Bio.Rad Mini Trans-Blott Electrophoretic Transfer Cell for 2 hrs at 4° C. applying 150 mA in transfer buffer ([…], 190 mM glycine and 20% methanol). Prestained molecular weight markers (Bio-Rad) were run in parallel. […]
First, we determined appropriate concentration of 103 and 105 for our experiments. The MCF-7 (wt p53) cells were treated for 12 hrs with increasing concentrations of 105 ranging from 1 to 100 μM and analysed for p53 protein expression using monoclonal antibody DO-1 (FIG. 3A). […] We analysed the expression of p53 protein in MCF-7 (wt p53), BT549 (mut p53) and BT474 (mut p53) breast cancer cell lines, in HT29 (mut p53) colorectal cancer cell line and in ostaosarcoma cell line HOS (mut p53). […]

[6] = system: CMV promoter (plasmid pCMV-lacZ); experiment: β-galactosidase expression from transiently transfected pCMV-lacZ in MCF-7 and T47D; settings: transiently transfected MCF-7 and T47D (FIG. 9)

CCC(CO)Nc1nc(NCc2ccccc2N)c2ncn(C(C)C)c2n1 (centres unmarked) [Compound 105, 2-({6-[(2-aminobenzyl)amino]-9-isopropyl-9H-purin-2-yl}amino)butan-1-ol]
inhibition of virus replication (in words) (IV): ineffective
phosphorylation of pRb at Ser780, Ser807 and Thr821 [1]: Reduced phosphorylation
expression from pHIV-lacZ (extrachromosomal location), β-galactosidase readout [2]: inhibited
tumor suppressor p53 level ([3]; MCF7 cells treated for 24 h, immunoblot (FIG. 2)): Induction
concentration shown to affect the level of p53 protein ([3]; MCF-7 (wt p53), 12 hrs, antibody DO-1): 2 to 5 µM
accumulation of wild-type p53 ([3]; MCF-7, 5 μM, 6, 12 and 24 hrs): significant accumulation
time at which induction of p53 protein was apparent ([3]; MCF-7 cells): 4 h
level of large T-antigen (SV40 large T-antigen): reduced level
large T-antigen expression [4]: stimulated large T-antigen expression
induction of p53 [5]: No induction
expression from CMV promoter (β-galactosidase activity) [6]: inhibited expression
